From US12558348B2, “Bioactive phytochemicals” (Phytoquest Limited, priority 2019, dated 2026)
Marks after values point to notes of the source that are not given here.

Columns and labels:
[1] = tested on: sialidase in human THP-1 (monocyte-like) cell cultures; assay: Endogenous (lysosomal) sialidase activity in LPS-stimulated THP-1 cells; type: cell-based; details: for RFU / Sialidase activity/mg protein: 2 hrs then 16 hours LPS; for Relative sialidase activity/mg protein: 16 hours LPS, relative to LPS control = 1.00
Description: The THP-1 cells were cultured in RPMI media supplemented with mercaptoethanol & glutamine to get 80% confluence in culture flask, then aspirated and centrifuged at 1500 rpm for 5 mins. The cell pellet was then resuspended in 1 ml of RPMI complete media and counted conventionally using a Hemocytometer. The cells (5×106) were incubated with PMA (10 ng/ml) in separate dishes to differentiate THP-1 cells. […] […] Post incubation, the cells were used to determine the sialidase activity.
The THP-1 cells were washed with phosphate-buffered saline (PBS) and resuspended in ice-cold buffer containing 0.25 M sucrose, 1 mM EDTA, and 0.2 mM phenylmethylsulfonyl fluoride. The cell suspension was sonicated on ice for 15 s on a low setting (6% amplitude) (Vibracell™; Sonics and Materials Inc., Newtown, CT) followed by centrifugation at 25,000 g for 15 min at 4° C. The resulting supernatant was used to determine the lysosomal sialidase activity. Protein quantification of the supernatant was performed using the Bio-Rad protein determination kit as described above. For the determination of lysosomal sialidase activity, 200 μg of total protein was mixed with 40 nmol of 4-methylumbelliferyl-α-N-acetyl-D-neuraminic acid (Sigma), the lysosomal sialidase-specific substrate, 10 μmol sodium acetate buffer, pH 4.6, and 200 μg of bovine serum albumin in a total volume of 200 μl. The sialidase reaction was allowed to proceed for 1 h at 37° C. and was terminated by the addition of 0.25 M glycine NaOH, pH 10.4. Released 4-methylumbelliferone was measured fluorometrically (Synergy 2 multimode microplate reader) at an excitation wavelength of 365 nm and emission wavelength of 448 nm.

TNF-α = assay: LPS-stimulated TNF-α production in human whole blood (ELISA); type: cell-based; details: for TNF-α plasma + LPS: 48 h preincubation, LPS 10 μg/ml 20 h
Description: Blood and buffy coat fractions were supplied by the Scottish National Blood Transfusion Service (SNBTS), Glasgow, UK. Ficoll Histopaque (1.077 g/l), Lipopolysaccharide (from Salmonella abortus equi) was purchased from Sigma-Aldrich Co. Ltd. (UK). PGE was from Cayman Chemical Co. (Ann Arbor, MI). Human TNF-α antibody pairs for TNF-α ELISA assays was from Invitrogen/Life Sciences Europe. All drugs were dissolved in RPMI 1640 medium from Gibco BRL, UK.
Blood was used without any further treatment following donation. It was kindly supplied by the Scottish National Blood Transfusion Service from normal healthy donors as defined by ensuring they all tested negative for HIV, hepatitis B & C, CMV and parasitic diseases such as malaria (as tested by the National Blood Transfusion service). They were also confirmed by our laboratory to be free of acute inflammatory disease at the time the blood was taken by measuring the basal level of TNF-α which was always […].
Aliquots (800 μl) of whole blood were incubated with the compound dissolved in RPMI 1640, as indicated in the results, for the appropriate preincubation period after which LPS was added and incubations continued for a further 20 hr at 37° C. in a humidified (100%) atmosphere of 5% CO2 in air. At the end of the incubation period, supernatants from either plasma or culture medium were collected by centrifugation at 10,000 g for 30 seconds at room temperature and TNF-α levels measured using a human TNF-α ELISA system (BioSource Europe S.A., Belgium, supplied by Invitrogen).
(§1) Table showing the effect of various idoBR1 concentrations on LPS-stimulated TNF-α production in human blood. Whole blood was preincubated for 48 h with varying concentrations of idoBR1 after which LPS (10 μg/ml) was added and incubations continued for a further 20 h. Following incubation at 37° C. (5% CO2, 100% humidity) plasma was collected from blood by centrifugation and the levels of TNF-α In plasma samples were measured by ELISA.
as §1, with “various cucumber extract (0.09% idoBR1)” for “various idoBR1”, “of cucumber Q-Actin extract” for “of idoBR1”, “TNF-α in” for “TNF-α In”, “ELISA. Values represent the means±s.d. of n=3. * denotes P<0.05 compared to LPS alone.” for “ELISA.”

Question: What does the source list for `O=C(O)[C@@H]1NC[C@H](O)[C@@H](O)[C@@H]1O` [idoBR1, (2R,3R,4R,5S)-3,4,5-trihydroxypiperidine-2-carboxylic acid]?
Answer: Sialidase activity/mg of protein ([1]; 12.5 μg/mL + LPS, 4 hours): 91.30; Sialidase activity/mg of protein ([1]; 12.5 μg/mL + LPS, 8 hours): 129.95; Sialidase activity/mg of protein ([1]; 12.5 μg/mL + LPS, 16 hours): 186.34; Sialidase activity/mg of protein ([1]; 12.5 μg/mL + LPS, 24 hours): 108.47; RFU ([1]; 12.5 μg/ml): 1610 RFU; Sialidase activity/mg protein ([1]; 12.5 μg/ml): 186.34; Relative sialidase activity/mg protein ([1]; 12.5 μg/ml): 0.89; Sialidase activity/mg of protein ([1]; 25 μg/mL + LPS, 4 hours): 86.48; Sialidase activity/mg of protein ([1]; 25 μg/mL + LPS, 8 hours): 121.84; Sialidase activity/mg of protein ([1]; 25 μg/mL + LPS, 16 hours): 178.24; Sialidase activity/mg of protein ([1]; 25 μg/mL + LPS, 24 hours): 103.85; RFU ([1]; 25 μg/ml): 1540 RFU; Sialidase activity/mg protein ([1]; 25 μg/ml): 178.24; Relative sialidase activity/mg protein ([1]; 25 μg/ml): 0.86; Sialidase activity/mg of protein ([1]; 50 μg/mL + LPS, 4 hours): 79.35; Sialidase activity/mg of protein ([1]; 50 μg/mL + LPS, 8 hours): 109.77; Sialidase activity/mg of protein ([1]; 50 μg/mL + LPS, 16 hours): 130.21; Sialidase activity/mg of protein ([1]; 50 μg/mL + LPS, 24 hours): 88.83; RFU ([1]; 50 μg/ml): 1125 RFU; Sialidase activity/mg protein ([1]; 50 μg/ml): 130.21; Relative sialidase activity/mg protein ([1]; 50 μg/ml): 0.63; Sialidase activity/mg of protein ([1]; 100 μg/mL + LPS, 4 hours): 72.15; Sialidase activity/mg of protein ([1]; 100 μg/mL + LPS, 8 hours): 99.32; Sialidase activity/mg of protein ([1]; 100 μg/mL + LPS, 16 hours): 115.16; Sialidase activity/mg of protein ([1]; 100 μg/mL + LPS, 24 hours): 78.66; RFU ([1]; 100 μg/ml): 995 RFU; Sialidase activity/mg protein ([1]; 100 μg/ml): 115.16; Relative sialidase activity/mg protein ([1]; 100 μg/ml): 0.55; effective concentration on LPS-induced TNF-α in human blood (TNF-α): below 10 μM; TNF-α plasma + LPS (TNF-α; 0.01 μM): 1680 pg/mL; TNF-α plasma + LPS (TNF-α; 0.1 μM): 950* pg/ml; TNF-α plasma + LPS (TNF-α; 1 μM): 490* pg/ml; TNF-α plasma + LPS (TNF-α; 10 μM): 500* pg/ml; TNF-α plasma (no LPS) (TNF-α; 10 μM, no LPS): 200 pg/mL; IC50 (TNF-α; 48 hr preincubation, human blood): 0.182 µM; concentration with significant activity in human blood (TNF-α; second study, with pre-incubation): 0.01 µM
